Measured values published in patent US9994541B2, “Nitroalkene trolox derivatives and methods of use thereof in the treatment and prevention of inflammation related conditions” (Institut Pasteur de Montevideo, priority 2016, dated 2018).

Assays:
THP-1 cells = experiment: Cell viability (MTT) of THP-1 macrophages stimulated with LPS and ATP; format: cell-based; settings: THP-1 macrophages activated by LPS or ATP, compound 0.5-20 μM together with first or second signal
Procedure: (§1) FIGS. 6A and 6B illustrate the effect of NATx0 on cell viability and NLRP3 inflammasome activation. THP-1 cells were differentiated into macrophages (PMA 200 nM, 48 hours). […] The cells were treated with NATx0 at 0.5 μM, 1.0 μM, 2.5 μM, 5.0 μM, 10 μM and 20 μM concentrations together with the first signal or the second signal. Cell viability was measured by MTT assay. Supernatant was stored.
(§2) At the first signal, we only observed a full inhibition of the inflammasome at 20 μM.

HO-1 = experiment: Western blot of HO-1 protein expression in Raw 264.7 macrophages; format: cell-based, murine; settings: Raw 264.7 cells, 5 μM, 18 hours
Procedure: (§3) Raw 264.7 cells, a murine macrophage cell line catalog no. TIB-71TM (ATCC, Manassas, Va.), were treated with NATx0 or NATx5 (5 μM) for 18 hours. Cells were lysed, and total protein concentration was measured with Pierce BCA assay (Thermo Fisher Scientific, Rockford, Ill.). For electrophoresis, 30 μg of protein was used in each line. The proteins were electrophoresed on a Tris/glycine SDS-polyacrylamide gradient gel (10-15%) and transferred to nitrocellulose membrane. The primary antibodies used for detection was rabbit polyclonal anti-HO-1 or anti-GCLM (Abcam, Cambridge, Mass.). Blots were visualized using horseradish peroxidase-conjugated secondary antibodies and ECL Plus detection system (GE Healthcare, Little Chalfont, UK). Blots were detected with a scanner. Protein expression was quantified with ImageQuant TL7.0 software (GE Healthcare, Little Chalfont, UK).

serum levels of IL-1β = experiment: LPS-induced inflammatory response in C57BL/6 mice, serum IL-1β by ELISA; format: in vivo; settings: 20 mg/kg i.p. 1 hour before 10 mg/kg LPS i.p., 2 hours after LPS
Procedure: In vivo testing was carried out in C57BL/6 mice. The mice were injected intraperitoneally (“i.p.”) with 20 mg/kg NATx0 or a control (DMSO) 1 hour before i.p. injection of 10 mg/kg LPS Escherichia coli 055:B5 (Sigma-Aldrich). After 2 hours the mice were killed, and serum levels of IL-1β were measured by ELISA to determine inflammatory response.

NLRP3 inflammasome = NLRP3 inflammasome activation in THP-1 macrophages, IL-1β by ELISA; format: cell-based
Procedure: as §1
In FIGS. 7A and 7B, supernatant stored from the previously described experiment were measured for IL-1β by ELISA.
as §2

GCLM = experiment: Western blot of GCLM protein expression in Raw 264.7 macrophages; format: cell-based, murine; settings: Raw 264.7 cells, 5 μM, 18 hours
Procedure: as §3

[1] = Michael adduct formation with glutathione (UV-visible spectra, stopped-flow kinetics); format: physicochemical; settings: 25 μM compound, absorbance at 260 nm, 25° C.
Procedure: In FIG. 3, 130 μM NATx0 was incubated with 2 mM Glutathione (Sigma) in 100 mM pH 7 phosphate buffer. UV-visible spectra was acquired by a Varian Cary 50 Bio. Scans were taken every min up to 15 min.
(§4) FIG. 4 illustrates a second order rate constant of the reaction between NATx0 and GSH. Stopped-flow kinetic measurements were performed using a Rx 2000 stopped flow analyzer (Applied Photophysics). Mixutres of 150 μL NATx0 (25 μM) and solutions of BME at 0.54 mM, 1.09 mM, 1.64 mM, 2.18 mM, and 2.73 mM concentrations.

NF-κB/p65 = experiment: LPS-induced NF-κB/p65 nuclear translocation in THP-1 macrophages (immunofluorescence); format: cell-based; settings: 10 uM, 2 hs before LPS (1 ug/mL)
Excerpt: Nuclear factor kappa B (NF-κB) represents a family of pro-inflammatory transcription factors, present in all eukaryotic cells, which regulate inducible expression of wide ranging genes involved in immune responses and cell-cycle regulation. Activation of NF-κB is accompanied by nuclear translocation of NF-κB. […] Specifically, FIG. 11 illustrates immunofluorescence and epifluorescence microscopy analysis showing the effect of NATx0 on LPS-induced NF-κB/p65 subcellular localization in THP-1 macrophages.

RAW 264.7 cells = experiment: Cytotoxicity in RAW 264.7 cells (MTT assay); format: cell-based, murine; settings: Mus musculus, RAW264.7, 24 h treatment, read-out: IC50 (cell viability)
Procedure: FIG. 8 NATx0 cell cytotoxicity was evaluated in RAW 264.7 cells at 1, 5, 10, 50 and 100 μM in DMSO. Cells were treated for 24 h with NATx0 and then MTT assay was performed. The absorbance at 570 nm was measured for each condition by triplicate. The % cell liability was calculated using control group (DMSO, without treatment). The half maximal inhibitory concentration (IC50) was calculated after % cell viability was plotted against the concentration of NATx0 and fitted to an exponential function using OriginLab software (version 8.0).

[2] = Michael adduct formation with β-mercaptoethanol (UV-visible spectra, stopped-flow kinetics); format: physicochemical; settings: 25 μM compound, BME 0.54-2.73 mM, absorbance at 260 nm, 25° C.
Procedure: UV-visible spectra was acquired by a Varian Cary 50 Bio. Scans were taken every min up to 15 min.
as §4, with “In FIG.” for “FIG.”, “2, it is shown that” for “4 illustrates a second order rate constant of”, “BME was determined to be a second order rate constant.” for “GSH.”

[3] = Stability in polyethylene glycol 300-400 at 37° C.; format: physicochemical; settings: PEG 300 to PEG 400, 37° C., two weeks, RP-HPLC
Procedure: FIG. 10 presents the incubation of NATx0 incubated in PEG 300 to PEG 400 at 37° C. for two weeks. At each time point, an aliquot was extracted with methanol and analyzed by reverse phase chromatography as before. After two weeks in 37° C. in PEG, 50% of the initial concentration of NATx0 was recovered.

Row | SMILES | cell mortality (cell viability by MTT) (THP-1 cells) | HO-1 protein expression (HO-1) | inflammatory response (serum IL-1β) (serum levels of IL-1β) | concentration giving full inhibition of the inflammasome (NLRP3 inflammasome; compound applied together with the first signal (LPS 250 ng/mL, 3 hours)) | concentration at which NLRP3 inflammasome activation is already inhibited (NLRP3 inflammasome; compound applied together with the second inflammasome-activating signal) | inhibition of inflammasome activation (IL-1β) (NLRP3 inflammasome; compound applied together with the second signal (ATP 5 mM, 45 minutes), 0.5-20 μM) | GCLM protein expression (GCLM) | second order rate constant of the reaction with GSH [1] | LPS-induced NF-κB/p65 nuclear translocation (NF-κB/p65) | IC50 (RAW 264.7 cells) | second order rate constant of the reaction with BME [2] | initial concentration recovered [3]
1 | Cc1c(C)c2c(c(C)c1O)CCC(C)(/C=C/[N+](=O)[O-])O2 (racemic) [NATx0, (±)-2,5,7,8-tetramethyl-2-[(E)-2-nitrovinyl]chroman-6-ol] | does not induce an increase in cell mortality | induced the expression | did not increase | 20 µM | 5 µM | inhibited inflammasome activation in dose dependent manner | induced the expression | 23.45 M⁻¹ s⁻¹ | no change from the negative control | 24 µM | 23.45 M⁻¹ s⁻¹ | 50%
2 | CCC/C(=C\C1(C)CCc2c(C)c(O)c(C)c(C)c2O1)[N+](=O)[O-] (racemic) [NATx5, (±)-2,5,7,8-tetramethyl-2-[(E)-2-nitropent-1-en-1-yl]chroman-6-ol] |  | induced the expression |  |  |  |  | induced the expression |  |  |  |  | 
